Experimental data as given in patent publication US20140315972A1, “RS)-2-(2-oxo-4-phenylpyrrolidin-1-yl)acetamide compound having modulatory activity with a commensurate effect, pharmaceutical substance (variants) and its application, composition (variants) thereof” (priority 2011, published 2014).
Values joined by “and” are separate entries in the source; they are usually repeats but may differ in a detail not shown here. Equal entries are not always repeated. Marks after values point to notes of the source that are not given here.

Legend:
[1] = test system: rats; assay: Formalin induced edema, topical application; format: in vivo
Experimental: To identify and assess the anti-inflammatory action of Phenotropil, a standard technique was used; the carrageenan-induced paw edema in rats (Winter C. et al, 1962). Phenotropil at a dose of 100 mg/kg was administered intragastrically 60 minutes before carrageenan. Control animals received distilled water. Additionally, the topical application by method of formalin induced edema was investigated (subplantar administration of 0.1 ml of 2% formalin solution). Phenotropil for topical use was prepared (1:1) on the standard ointment base carrier at 100 mg/kg of body weight for each animal (150-220 g). The preparation was rubbed in the leg and a gauze patch was applied for 2 hours and 1 hour before the induction of inflammation.

[2] = test system: rats; assay: Retrograde amnesia of CRPA induced by electroshock and scopolamine, adult rats; format: in vivo
Description: Phenotropil has a pronounced mnemotropic and nootropic activity. The results of the study of the antiamnestic activity (classical technique in the equipment manufactured by Lafayette Instrument Co, USA) in the retrograde amnesia of the passive avoidance conditional reflex (CRPA) induced by maximal electroshock (MES) and scopolamine in male rats (180-250 g) are shown in Table 7. […] Taking into account the studies using the open field and cross maze tests, the nootropic action component of the modulatory drug not only may be more pronounced, but is broader in manifestation depending on the type of disorder or in unfamiliar situational conditions. The pronounced nootropic activity of Phenotropil (100, 200, 300 mg/kg) also manifests in rat pups of both sexes 30-35 days of age (Table 7.1) after scopolamine-induced CRPA amnesia.

[3] = test system: women; assay: Skin aging, vessels and joints, topical solution and creams; format: in vivo, human; conditions: for Efficacy in % relative to baseline control (skin aging) / Efficacy in % (skin aging) / Efficacy expressed in % (age-related changes of blood vessels and joints) / Efficacy expressed in % (skin aging): humans, topical course; for Efficacy in % (skin aging): baseline control = 100.0; for Efficacy expressed in % (age-related changes of blood vessels and joints) / Efficacy expressed in % (skin aging): baseline control = 100
Experimental: Example 24 presents the results of research of Phenotropil as parapharmaceutic—cosmeceutical agents in women (age 53-60 years) and as a standard solution. The 0.1% water solution (distilled water) of Phenotropil and placebo was prepared; for convenience of preparing therapeutic cream formulation, the standard composition of cream base was used, or actual creams “Vecher”, “Lux” and “Gerantol” manufactured by “Svoboda” (Russia) were used as the base, with 100, 200, 300 mg of Phenotropil per 100 g of finished compositions to prepare a cosmeceutical agent. The cosmeceutical formulations were prepared with the powder of Compound 1 sifted and well ground in a mortar.
At baseline examination, main indicators of the skin condition of the hands and face in the groups were recorded, integral index for aggregate characteristics was calculated (dryness, wrinkling, superficial vascular fascicles, the intensity of subcutaneous vascular pattern, pigmentation—the intensity of color, the number of pigment spots and their total area). Preliminarily, each subject was tested for allergic skin reaction with the most concentrated formulation. No allergic reactions have been identified. In one group, only solution of Phenotropil was used in the morning and evening, applying a small amount (like a regular lotion) of the solution on cosmetic cotton pads and wiping the face and hands. In the other groups, this procedure was carried out before applying the Phenotropil-containing cream. The results of the baseline evaluation in each group were taken for 100.0%.

[4] = test system: MDA (malondialdehyde); assay: Plasma TBA-MDA under negative stress (Ns, Ds); format: in vivo, rats; conditions: for km % vs experimental control (saline): Ds seven days + 200 mg/kg, listed as Phenotropil
[5] = Slendering effect, body weight and rating scales in obese humans; format: in vivo, human; conditions: for Body weight (%): adult humans, change vs background (not treated) = 100; for decrease of body weight: obese women
Experimental: A study of the slendering effect of Phenotropil (100, 200 and 300 mg once a day for 30 days) in women (37-65 years) with alimentary constitutional obesity and non-obese groups (males and females 23-47 years) are presented in Table 26. The control groups received placebo tablets. The nutrition regimen and ration were not regulated; no recommendations on calories or regimen were given. The purpose of the study was to identify the effect of the drug without the influence of the diet. To assess the condition before and after treatment, in addition to the measurement of body weight, the dynamics of the general clinical condition was studied: asthenia scale MFI-20, Hospital Anxiety and Depression Scale, the quality of life scale SF-36. The questionnaires were completed twice: one day before treatment and the next day after the end of treatment.

[6] = test system: HSP32; assay: HSP32 level in brain structures (Western blot); format: in vivo; conditions: Wistar rats, no Ns
[7] = August rats, single Ns-exposure + 200 mg/kg
[8] = Wistar rats, single Ns-exposure + 200 mg/kg

## NC(=O)CN1CC(c2ccccc2)CC1=O (racemic) [Compound 1, (RS)-2-(2-oxo-4-phenylpyrrolidine-1-yl)acetamide]
[1]; topical 100 mg/kg before formalin
  shortening of inflammation vs control: 64.5%
[1]; topical 100 mg/kg, 2 hours before formalin
  Effect on formalin edema vs control (100): −79.9%
[2]; ECS amnesia, 25 mg/kg
  Latent period of the first entry into the chamber at testing the preservation of CRPA, after 24 hours: 65.6* seconds
[2]; ECS amnesia, 50 mg/kg
  Latent period of the first entry into the chamber at testing the preservation of CRPA, after 24 hours: 74.4* seconds
[2]; ECS amnesia, 100 mg/kg
  Latent period of the first entry into the chamber at testing the preservation of CRPA, after 24 hours: 112.5* seconds
[2]; scopolamine 1 mg/kg amnesia, 25 mg/kg
  Latent period of the first entry into the chamber at testing the preservation of CRPA, after 24 hours: 78.8* seconds
[2]; scopolamine 1 mg/kg amnesia, 50 mg/kg
  Latent period of the first entry into the chamber at testing the preservation of CRPA, after 24 hours: 96.0* seconds
[2]; scopolamine 1 mg/kg amnesia, 100 mg/kg
  Latent period of the first entry into the chamber at testing the preservation of CRPA, after 24 hours: 125.3* seconds
[3]; cream applied less than two hours before bedtime
  subjects with mild morning facial swelling: 18.0%
[3]; 50 mg + “Gerantol” cream 100 g
  Efficacy in % relative to baseline control (skin aging): 132.0 * %
[3]; 50 mg + “Lux” cream 100 g
  Efficacy in % (skin aging): 167.0 * %
[3]; 100 mg + 100 g of cream base
  Efficacy expressed in % (age-related changes of blood vessels and joints): 211* %
[3]; 100 mg + “Gerantol” cream 100 g
  Efficacy in % relative to baseline control (skin aging): 205.0 * %
[3]; 100 mg + “Lux” cream 100 g
  Efficacy in % (skin aging): 210.0 * %
[3]; 100 mg + “Vecher” cream 100 g
  Efficacy expressed in % (skin aging): 317* %
[3]; 200 mg + 100 g of cream base
  Efficacy expressed in % (age-related changes of blood vessels and joints): 219* %
[3]; 200 mg + “Gerantol” cream 100 g
  Efficacy in % relative to baseline control (skin aging): 251.0 * %
[3]; 200 mg + “Lux” cream 100 g
  Efficacy in % (skin aging): 240.0 * %
[3]; 200 mg + “Vecher” cream 100 g
  Efficacy expressed in % (skin aging): 280* %
[3]; 300 mg + 100 g of cream base
  Efficacy expressed in % (age-related changes of blood vessels and joints): 174* %
[3]; 300 mg + “Gerantol” cream 100 g
  Efficacy in % relative to baseline control (skin aging): 277.0 * %
[3]; 300 mg + “Lux” cream 100 g
  Efficacy in % (skin aging): 280.0 * %
[3]; 300 mg + “Vecher” cream 100 g
  Efficacy expressed in % (skin aging): 249* %
[3]; aqueous solution 0.1%
  Efficacy in % (skin aging): 212.0* %
[3]; cream, 50 mg per 100 g of the base
  Efficacy in % (skin aging): 140.0 * %
[3]; cream, 100 mg per 100 g of the base
  Efficacy in % (skin aging): 180.0 * %
[3]; cream, 200 mg per 100 g of the base
  Efficacy in % (skin aging): 187.0 * %
[3]; cream, 300 mg per 100 g of the base
  Efficacy in % (skin aging): 200.0 * %
[4]; August rats, 200 mg/kg single, no Ns
  Optical density of the samples vs control: +188.4 * %
[4]; August rats, 200 mg/kg, normal conditions
  km % vs outbred group: 0%
[4]; August rats, exposure to Ns
  increase of plasma MDA concentration vs baseline control: 2.2 times
  plasma MDA higher than with Phenotropil without Ns: 17.0%
[4]; [7]
  MDA content vs control: +223.0 * %
  Optical density of the samples vs control: +220.3 * %
[4]; August rats, three-time Ns + 200 mg/kg
  km % vs outbred group: +27.8% *
[4]; Wistar rats, 200 mg/kg single, no Ns
  Optical density of the samples vs control: +66.5 * %
[4]; Wistar rats, 200 mg/kg, normal conditions
  km % vs outbred group: 0%
[4]; Wistar rats, 200 mg/kg
  km % vs experimental control (saline): −65.6% and −65.6 *** %
[4]; Wistar rats, exposure to Ns
  reduction of MDA level vs baseline control without stress: 6.0%
[4]; [8]
  MDA content vs control: −6.0 * %
  Optical density of the samples vs control: −6.0 * %
[4]; Wistar rats, three-time Ns + 200 mg/kg
  km % vs outbred group: −33.3% *
[4]; outbred rats, 200 mg/kg
  km % vs experimental control (saline): −73.0% and −73.0 *** %
[4]; rats, during treatment
  increase of species reserve of stability (intra-species Kt) in acute Ns-state: 12.5%
[4]; single injection, no stress
  activation in August relative to Wistar strain: 2.9 times
[5]; 100 mg/day
  Body weight (%): −12.0 * %
[5]; 200 mg/day
  Body weight (%): −15.0 * %
[5]; 300 mg/day
  Body weight (%): −17.8 * %
[5]; comorbidities
  positive effect on cramps when urinating, patients: 5 of 5
  positive effect on lost ability to sense and discriminate odors, patients: 11 of 18
  positive effect on prostatitis, patients: 3 of 3
  positive trend in chronic sinusitis, patients: 8 of 8
[5]; 100 mg once a day 30 days
  decrease of body weight: 12%
[5]; 200 mg once a day 30 days
  decrease of body weight: 15%
[5]; 300 mg once a day 30 days
  decrease of body weight: 18%
[5]; rating scales after 30 days
  decrease of anxiety and depression, on average: more than 60%
  decrease of indicators of fatigue: 92%
[6]; 200 mg/kg single
  HSP32 Total vs outbred control: +68.8 * %
[6]; tested dose
  decrease of gene expression (heat shock protein): 17.7%
